Experiments:
[1] = system: HEK293T cells; assay: HA-ubiquitin immunoprecipitation, H2A/H2AX ubiquitination; assay type: cell-based; conditions: 20 μM compound 7a for 24 h
Procedure: FIG. 6A: MDA-MB-231 and MDA-MB-468 were treated with indicated concentrations of compound 7a for 48 h, and then the immunofluorescence analysis was performed to detect γH2AX signal, the histone H2AX phosphorylation representing DSBs. Scale bar: 100 μm. FIG. 6B: γH2AX positive cells in (FIG. 6A) were counted and presented in the histogram. FIGS. 6C and 6D: following treatment with different concentrations (FIG. 6C) and times (FIG. 6D) of compound 7a, treated cell were lysed and phosphorylation/activation levels of ATM, NBS1, SMC1, γH2AX were examined by western blotting. Additionally, RNF8 and DNA repair proteins such as BRCA2 and RAD51 were detected using western. β-tubulin was employed as a loading control. […] P62 signal was measured by immunofluorescence analysis. […] HA-Ub was immunoprecipitated with HA binding beads and ubiquitinated H2A/H2AX was detected with anti-H2A/H2AX. […]
MDA-MB-231 and MDA-MB-468 cells were treated with the compound 7a (0, 5, 10 and 20 μmol/L) for 48 h, total protein was extracted using RIPA buffer (Beyotime, Shanghai, China) supplemented with protease/phosphatase inhibitor cocktail (Roche, Mannheim, Germany) at 4° C. for 30 min. The protein concentration was quantified by the BCA protein assay kit (Beyotime). […] The objective protein signal was obtained using an odyssey two-color infrared fluorescence imaging system (Li-cor, NE, USA). […]

[2] = system: MDA-MB-231 and MDA-MB-468 cells; assay: Immunofluorescence of γH2AX and p62; assay type: cell-based, Human
Procedure: Cells were plated on glass coverslips in 24-well plates prior to treatment. After being exposed to different doses of compound 7a for 48 h, cells were washed with PBS for three times, fixed with 4% paraformaldehyde-PBS for 30 min, and then followed by permeabilization with 0.1% Triton X-100 for 10 min. Next, the samples were blocked with QuickBlock Blocking Buffer for Immunol Staining (Beyotime) for 30 min at 37° C., and incubated with anti-Ki67 (1:250), anti-LC3B antibody (1:250), anti-SQSTM1 antibody (1:250) or anti-γH2AX (1:250) overnight at 4° C. After washing with PBS three times, the stained cells were incubated with Alexa Fluor-conjugated secondary antibodies (1:2000) for 1 hour at room temperature. Moreover, 1 mg/mL DAPI dissolved in PBS were employed to label nuclei (30 min). Images were captured with a High Content analysis system (Perkinelmer, MA, USA).

[3] = system: MDA-MB-468 cells; assay: Annexin V-FITC/PI apoptosis assay by flow cytometry; assay type: cell-based, Human; conditions: 48 h, dose-dependent; from 5.02% in control; p<0.01
Procedure: (§1) Cells in a logarithmic growth phase were harvested and seeded into six-well plates with 30% cell density and cultured overnight in an incubator. Once adhered to the bottom of the plate, cells were treated with different doses of compound 7a for 48 h, and then employed in flow cytometry analysis. For cell cycle assay, the collected cells were washed with phosphate-buffered saline (PBS) and fixed with 70% cold ethanol in 4° C. for 24 h. After washing three times of PBS, the fixed cells were incubated in 200 μL PBS solution containing 1 μL propidium iodide (BD, CA, USA) and 1 μL RNase (Sigma Aldrich, USA) at 37° C. for 0.5 h. Finally, cells were analyzed using BD Accuri™ C6 flow cytometry (BD Biosciences, USA). For the cell apoptosis assay, after the cells were harvested and washed twice with PBS, the percentage of apoptotic cells were measured using an Annexin V-FITC/PI Apoptosis Assay Kit (BD Biosciences, USA). The BD Accuri™ C6 flow cytometry was used to analyze the apoptosis process. The FlowJo software was used to analyze the cell cycle arrest and apoptotic rate.

[4] = system: MDA-MB-231 and MDA-MB-468 cells; assay: Immunoblotting of cell cycle, apoptosis, autophagy and DDR proteins; assay type: cell-based, Human
Procedure: MDA-MB-231 and MDA-MB-468 cells were treated with the compound 7a (0, 5, 10 and 20 μmol/L) for 48 h, total protein was extracted using RIPA buffer (Beyotime, Shanghai, China) supplemented with protease/phosphatase inhibitor cocktail (Roche, Mannheim, Germany) at 4° C. for 30 min. The protein concentration was quantified by the BCA protein assay kit (Beyotime). Protein samples (50 μg) were separated by SDS-PAGE with appropriate gel concentration and subsequent electrophoretically transferred onto PVDF membranes (Millipore Corporation, MA, USA). After blocking with 5% BSA for 2 h at ambient temperature, the membranes sections were incubated gently with the indicated primary antibodies overnight at 4° C. and washed with TBST for 5×5 minutes. Subsequently, the membranes were then incubated with corresponding IRDye 800CW goat anti-mouse IgG (H+L) or IRDye 680LT donkey anti-rabbit IgG (H+L) secondary antibody for 1 h. The objective protein signal was obtained using an odyssey two-color infrared fluorescence imaging system (Li-cor, NE, USA). For immunoprecipitation, harvested cells were lysed in ice-cold NP-40 buffer including 50 mM Tris-HCl (pH 7.4), 150 mM NaCl, 0.5% NP-40, 1 mM Na3VO4, 50 mM NaF and protease inhibitor cocktail (Roche). Lysate was centrifuged at 12,000×g for 20 min at 4° C. The supernatant was incubated with anti-HA at 4° C. overnight, followed by incubation with Protein-A/G beads overnight (Beyotime). The proteins were washed six times with ice-cold NP-40 buffer and eluted with SDS loading buffer containing mercaptoethanol by boiling for 10 min.

[5] = system: MDA-MB-231 and MDA-MB-468 cells; assay: Mitochondrial membrane potential (JC-1) assay; assay type: cell-based, Human; conditions: 20 μM/L, 48 h
Procedure: The JC-1 Assay Kit (Beyotime) was used to monitor the alteration of mitochondrial membrane potential as the manufacturer's instructions. MDA-MB-231 and MDA-MB-468 cells were seeded in six-well plates with an appropriate density (2×10^5/mL) and then treated with compound 7a at various concentrations (0, 5, 10, 20 μM) for 48 h. Then 100 μL of JC-1 staining solution was added into 1 mL of medium and incubated for 20 min at cell incubator. The BD Accuri™ C6 flow cytometry was used to analyze the samples. Each experiment was carried out in triplicate, and the results were expressed as the mean±SD.

[6] = system: MDA-MB-231 and MDA-MB-468 cells; assay: Cell cycle analysis by flow cytometry; assay type: cell-based, Human; conditions: 48 h
Procedure: as §1

In the case of O=C(NC1CCCCC1)c1[nH]cnc1-c1nc2ccccc2[nH]1 [Compound 7a], the “formation of H2A poly-ubiquitin chains” value [1] is reported as “significantly reduced”, the γH2AX foci ([2]; 48 h) is reported as “accumulation of γH2AX foci in nuclei” and the “p62 signal in nuclei” value ([2]; dose-dependent) is reported as “accumulated in the nuclei”. The “proportion of late-phase apoptosis” value [3] was 36.4%, the p62 level ([4]; TNBC cells) was “resulted in a p62 accumulation” and the “expression of BRCA2, RAD51 and RNF8” value ([4]; immunoblotting) was “significantly reduced”. The “levels of BRCA2 and RAD51” value ([4]; immunoblotting) was “dramatically decreased levels of both proteins in a dose-dependent manner”, the “phosphorylation of ATM, NBS1 and SMC1” value ([4]; immunoblotting) was “activated” and the “p62 in nuclear and cytoplasmic proteins” value ([4]; immunoblotting of fractions) was “drastic p62 increase in the nucleus and cytoplasm in a dose-dependent manner”. For the same molecule, the “P21 and phosphorylation levels of CHK1 (Serine 345) and CHK2 (Threonine 68)” value ([4]; immunoblotting, 48 h) was “increased P21 and the phosphorylation levels of CHK1 (Serine 345) and CHK2 (Threonine 68) in a dose-dependent manner”, the “anti-apoptotic protein Bcl-2” value ([4]; immunoblotting, 48 h) was “decrease of anti-apoptotic protein Bcl-2” and the “cytochrome c, cleaved caspase-3, cleaved caspase-9 and cleaved PARP” value ([4]; immunoblotting, 48 h) was “increased in a dose-dependent manner”. The “levels of Cyclin A, Cyclin B, CDK1 and CDK2” value ([4]; immunoblotting, 48 h) was “decreased the levels of Cyclin A, Cyclin B, CDK1 and CDK2”, the “pro-apoptotic proteins Bak, Bim and Bax” value ([4]; immunoblotting, 48 h) was “elevated in a dose-dependent manner” and the γH2AX level ([4]; immunoblotting, dose-dependent) was “significantly increased”. For the same molecule, the “conversion to LC3B-II” value ([4]; immunofluorescence and western blotting, dose- and time-dependent) was “significantly induced”, the “cells with reduced mitochondrial membrane potential” value [5] was ~50% and the cell cycle distribution [6] was “induced cell cycle arrest at S-phase”.
